This experiment has as its target T1, Receptor-interacting serine/threonine-protein kinase 1 (Homo sapiens, UniProt Q13546).
T1 sequence (Q13546 whole entry): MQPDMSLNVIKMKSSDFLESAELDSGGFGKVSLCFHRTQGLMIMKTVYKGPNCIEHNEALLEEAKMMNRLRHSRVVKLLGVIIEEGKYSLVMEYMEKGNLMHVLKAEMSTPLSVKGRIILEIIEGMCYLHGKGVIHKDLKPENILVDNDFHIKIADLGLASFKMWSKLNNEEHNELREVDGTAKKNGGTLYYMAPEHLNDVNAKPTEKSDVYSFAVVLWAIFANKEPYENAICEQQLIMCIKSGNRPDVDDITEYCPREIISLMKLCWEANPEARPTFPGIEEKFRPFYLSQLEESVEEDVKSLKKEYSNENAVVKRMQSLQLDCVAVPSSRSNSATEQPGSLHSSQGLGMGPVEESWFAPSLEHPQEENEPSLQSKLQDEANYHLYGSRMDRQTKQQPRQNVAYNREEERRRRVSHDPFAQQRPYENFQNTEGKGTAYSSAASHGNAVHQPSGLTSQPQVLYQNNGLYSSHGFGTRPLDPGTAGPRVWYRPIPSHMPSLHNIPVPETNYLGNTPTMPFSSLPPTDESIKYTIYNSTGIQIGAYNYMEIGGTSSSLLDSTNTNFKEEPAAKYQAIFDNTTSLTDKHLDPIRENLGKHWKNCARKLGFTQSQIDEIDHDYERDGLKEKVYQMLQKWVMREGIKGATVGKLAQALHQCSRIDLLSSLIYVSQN
The experiment can be described thus: […]: Test compounds were diluted in DMSO and 0.1 μL of solution was dispensed to each well of a 384-well white solid microplate. The assay buffer was 50 mM HEPES pH 7.5, 50 mM NaCl, 30 mM MgCl2. The buffer was supplemented with 0.02% CHAPS, 0.01% of Pluronic F127, 0.1 mg/mL BSA and 1 mM DTT. MnCl2, 5 mM, was included in the assay buffer on the day of the experiment. […] 5 μL of enzyme and 5 μL of ATP were added to the plate at twice the final assay concentration and incubated at room temperature for 3 hours. Following this reaction, 10 μL of ADP-Glo reagent (Promega) was added to each well and incubated for 40 min at room temperature. This stops the kinase reaction and depletes any remaining ATP. 20 μL of ADP-Glo detection reagent was then added to each well and incubated at room temperature for at least 15 minutes. The detection reagent converts ADP to ATP and introduces luciferase and luciferin to detect ATP. The luminescence is then measured with the Envision (PerkinElmer) plate reader. Test compound inhibition was expressed as percent inhibition of internal assay controls. For concentration response curves, normalized data is fit and IC50 determined using XL-fit (IDBS) for Excel. The IC50 were averaged to determine a mean value, for a minimum of two independent experiments. For orientation: ADP-Glo turns the ADP formed in a reaction into a luminescent signal.

The structures appear in SMILES notation.

This note sets out measurements from ChEMBL document CHEMBL5726787, “Compounds, compositions and methods” (2018).

As usually defined, the IC50 is the concentration that inhibits the measured activity by half. The compound `CN1C(=O)C(NC(=O)c2nnc(Cc3ccccc3)[nH]2)C[C@@H](F)c2ccccc21` (some centres not stated) gave an IC50 of 0.1 to 1000 nM.

As to `CN1C(=O)C(NC(=O)c2nnc(Cc3ccccc3)[nH]2)C[C@H](F)c2ccccc21` (some centres not stated), the IC50 fell in the range of 0.1 to 1000 nM.
